Source: patent US20100189675A1, “COSMETIC USE OF AN IMIDOPERCARBOXYLIC ACID DERIVATIVE AS DESQUAMATING AGENT” (L'Oreal, priority 2007, published 2010)

Test system: corneocytes
Assay: In vitro test of desquamating efficacy (corneocytes liberated, expressed as protein concentration)
Type: cell-based
Experimental: An in vitro test was carried out in order to determine the efficacy of phthalimidoperoxycaproic acid compared with a composition comprising 30% of glycolic acid and 70% of water. The number of corneocytes liberated is expressed as protein concentration. After applying a composition comprising 17% of phthalimidoperoxycaproic acid, the protein concentration is about 320 μg/ml, while it is about 210 μg/ml for the composition comprising glycolic acid.

Question: With `O=C(O)CO` [glycolic acid, reference compound] as the compound, how does the “number of corneocytes liberated expressed as protein concentration” value (composition comprising 30% of glycolic acid and 70% of water) read?
Answer: about 210 μg/ml

Question: `O=C(CCCCCN1C(=O)c2ccccc2C1=O)OO` [phthalimidoperoxycaproic acid] was tested. Which “number of corneocytes liberated expressed as protein concentration” value (after applying a composition comprising 17% of phthalimidoperoxycaproic acid) did it give?
Answer: about 320 μg/ml

Question: And the “desquamating efficacy compared with reference” value (compared with glycolic acid (AG) at 30%)?
Answer: high desquamating efficacy greater than the reference glycolic acid
